Measurements: patent US8258182B2, “Substituted 1,3-diphenylpropane derivatives, preparations and uses thereof” (Genfit, priority 2006, dated 2012)

Test system: PPARs target genes (PDK4, ACO, UCP2) in hepatic and skeletal muscle tissue
Experiment: Expression of PPAR target genes in liver and skeletal muscle of db/db mice (quantitative RT-PCR)
Assay type: in vivo, mouse
Settings: 50 mpk
Description: The effectiveness of the compounds according to the invention is also evaluated by measuring, in hepatic and muscular (skeletal) tissue, the expression of the genes involve in lipid and/or carbohydrate metabolism and in energy dissipation. Each level of gene expression is normalized in regarding the expression level of reference gene 36B4 in the hepatic tissue, or regarding the expression level of reference gene 18S in the gastrocnemius skeletal muscle. The induction factor, i.e. the ratio between the relative signal (induced by the compound according to the invention) and the average of relative values relating to the control group, is then calculated. The higher the induction factor is, the more the compound promotes gene expression. The final result is expressed as an average of the induction values obtained with each experimental group.
Female db/db mice were kept on a 12 hour/12 hour light/dark cycle at a constant temperature of 20±3° C. After a one week acclimatization period, the mice were weighed and divided into groups of 8 animals selected such as the distribution of body weight and of plasma lipid rate, determined before the experiment, was uniform. […] Taking of food and weight gain are recorded throughout the experiment. […]
1 μg of total RNA (quantified by spectrophotometry) was then reverse-transcripted into complementary DNA by means of a 1 hour reaction at 37° C. in a total volume of 20 μl containing a 1× buffer (Sigma), 1.5 mM of DTT, 0.18 mM of dNTPs (Promega), 200 ng of pdN6 (Amersham), 30U of RNase inhibitor (Sigma), and 1 μl of MMLV-RT (Sigma).
The PCR quantitative experiments were carried out using the MyiQ Single-Color Real-Time PCR Detection System (Biorad, Marnes-la-Coquette, France) and were performed using the iQ SYBR Green Supermix kit according to the provider's recommendations, in 96-well plates, with 5 μl of diluted reverse transcription solutions and at a hybridization temperature of 55° C. […]
The fluorescent quantity emitted is directly proportional to the amount of cDNA present at the beginning of the reaction and amplified during the PCR. […]

CCCOc1ccc(C(=O)CCc2cc(C)c(OC(C)(C)C(=O)O)c(C)c2)cc1 [Compound 8, 2-[2,6-dimethyl-4-[3-[4-(propyloxy)phenyl]-3-oxo-propyl]phenoxyl]-2-methylpropanoic acid]
hepatic expression of the genes coding for PDK4 (28 days (FIG. 3-4)): significant increase
hepatic expression of the genes coding for ACO (28 days (FIG. 3-5)): significant increase
expression of the gene coding for UCP2 in the skeletal muscle (28 days (FIG. 3-6)): increase
